Peptide text beside a SMILES is read from it. * marks the point of attachment. Palmitoyl = CCCCCCCCCCCCCCCC(=O)* Bounds are passed on as bounds.

For one assay, the target named is T1, rat thoracic aorta rings (Rattus norvegicus, UniProt P49684).
T1 sequence (P49684 1-386): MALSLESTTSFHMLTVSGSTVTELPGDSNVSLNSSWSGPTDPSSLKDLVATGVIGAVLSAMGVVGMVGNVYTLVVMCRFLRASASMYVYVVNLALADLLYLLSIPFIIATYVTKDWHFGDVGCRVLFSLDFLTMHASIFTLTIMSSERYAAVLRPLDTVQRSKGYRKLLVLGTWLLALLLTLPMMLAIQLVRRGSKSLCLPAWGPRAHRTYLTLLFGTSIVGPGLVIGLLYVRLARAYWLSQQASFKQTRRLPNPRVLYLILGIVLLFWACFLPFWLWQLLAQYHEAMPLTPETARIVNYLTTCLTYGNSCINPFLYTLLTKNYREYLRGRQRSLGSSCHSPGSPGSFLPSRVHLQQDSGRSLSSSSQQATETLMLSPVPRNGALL
The experiment in a line: Modulation of hUII-mediated rat aortic ring contraction. To be noted: for Emax: read-out: hUII Emax after pepducin pretreatment. On the procedure:
Each replicate (n) was conducted on tissue obtained from at least three different animals. Data represent mean ± SEM.
Adult male Sprague-Dawley rats (Charles-River) weighing 250–300 g were housed in cages under controlled illumination (12:12 h light–dark cycle), humidity, and temperature (21–23 °C) and had free access to tap water and rat chow. All experimental procedures were performed in accordance with regulations and ethical guidelines from the Canadian Council for the Care of Laboratory Animals and received approvals of the institutional animal care and use committee of the Institut National de la Recherche Scientifique—Centre Armand-Frappier Santé Biotechnologie. As previously described ([17], [18]), the thoracic aorta was cleared of surrounding tissue and then excised from the aortic arch to the diaphragm. Conjunctive tissues were next removed from the thoracic aorta and the vessels were divided into five rings of 4 mm. The endothelium of each aortic ring was removed by gently rubbing the vessel intimal surface. Aortic rings were then placed in a 5 ml organ bath filled with oxygenated normal Krebs–Henseleit buffer. Eighty microliters of a 2.5 M potassium chloride solution (40 mM final concentration) was used to evaluate maximal contractile responses of each vessel. […] Cumulative concentration–response curves to synthetic peptides were obtained by increasing the concentration of each peptide in the remaining organ chambers (10^−11–10^−5 M).

The target in assay [1] is T2, hUT (Homo sapiens, UniProt Q9UKP6).
T2 sequence (Q9UKP6 1-389): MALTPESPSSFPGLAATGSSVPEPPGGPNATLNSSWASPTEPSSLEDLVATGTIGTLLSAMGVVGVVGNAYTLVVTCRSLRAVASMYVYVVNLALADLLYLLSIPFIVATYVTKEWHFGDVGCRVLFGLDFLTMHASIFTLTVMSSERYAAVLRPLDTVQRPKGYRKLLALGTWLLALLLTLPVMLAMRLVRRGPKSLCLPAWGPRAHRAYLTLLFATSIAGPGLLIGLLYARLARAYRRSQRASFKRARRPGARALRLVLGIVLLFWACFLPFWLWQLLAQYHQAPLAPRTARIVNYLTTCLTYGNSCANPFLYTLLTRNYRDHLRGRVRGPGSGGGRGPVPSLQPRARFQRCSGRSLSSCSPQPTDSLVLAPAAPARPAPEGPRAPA
The experiment in a line: Gq activation, BRET biosensor, HEK 293-hUT cells. The assay is classed as cell-based. On the set-up: expressed in transfected cells. To be noted: mean ± SEM; for EC50: n = 3–5, read-out: Gq activation pEC50 (converted). The method, then:
Figure 6 Signaling signature of hUT-pepducins following hUT receptor activation. […] Each curve represents mean ± SEM of at least three independent concentration-response experiments performed in triplicate.
HEK 293-hUT cells were grown in DMEM culture media supplemented with 10% foetal bovine serum, HEPES, sodium pyruvate, and G418 (200 μg mL^−1). Passages were performed when cells reached 80% of confluency. Cells were initially plated in 96-well plates at a density of 10,000 cells/well. The following day, the medium is replaced with DMEM culture media supplemented with 2.5% foetal bovine serum (FBS), and 12 h later, cells were transiently transfected with 25 ng/well of a Gq-polycistronic, 25 ng/well of a G12-polycistronic BRET sensor, 25 ng/well of a G13-polycistronic BRET sensor, 2.5 ng/well pIRESB RLucII-ERK-NLS-GFP BRET sensor, 2.5 ng β-arrestin 1-polycistronic BRET sensor, or 2.5 ng β-arrestin 2-polycistronic BRET sensor using Lipofectamine2000 at a ratio of 3:1 (Lipofectamine/plasmid DNA) in serum-free Opti-MEM ([44], [81]). Sixteen hours posttransfection, medium was replaced with DMEM supplemented with 10% FBS, HEPES, sodium pyruvate and G418 (200 μg mL^−1) and cell growth was resumed for another 16 h. Cells were washed with 150 μl PBS solution supplemented with 0.1% of glucose and then incubated with 80 μl of this solution for 2 h. Then, to evaluate Gq and G12 activation, 10 μl of a 1/20 dilution (diluted before use) of coelenterazine 400A (stock at 1 mM in ethanol) in Kreb's buffer and 10 μl of the 10× appropriate concentration of peptide were added, and the luminescence was evaluated with an Infinite M1000 PRO. […] Readings were performed after 5 min using an Infinite M1000 PRO. Filters were set at 410 nm and 515 nm for detecting the Renilla luciferase II (RlucII, donor) and green fluorescent protein 10 (GFP10, acceptor) light emission, respectively. BRET ratio was determined by calculating the ratio of the light emitted by GFP10 over the light emitted by the RlucII.
(In general: BRET reads energy transfer from a luciferase to a nearby fluorophore.)

Assay [2] concerns the target T2, hUT. Nature of the assay: Gi activation, BRET biosensor, HEK 293-hUT cells. The assay is classed as cell-based. The arrangement: expressed in transfected cells. To be noted: for EC50: HEK 293-hUT, BRET, mean ± SEM, n = 3–5, read-out: Gi activation pEC50 (converted).
A further assay relates to CHO-K1 cells. The experiment in a line: ERK1/2 phosphorylation, western blot, CHO-K1 cells not expressing hUT. The assay is classed as cell-based. To be noted: CHO-K1, 5 min; hUII 10^−7 M, pepducins 10^−5 M; n = 3.
The target of assay [3] is T2, hUT. The experiment in a line: IP1 production, IP-One terbium immunoassay, CHO-hUT cells. It counts as cell-based. The arrangement: expressed in transfected cells; host or cells: CHO-K1 cells stably expressing hUT (gift from H. Vaudry and C. Dubessy, University of Rouen). To be noted: for IP1 production efficacy at 10^−5 M: 40 min, normalized to the hUII maximum effect; for EC50: 40 min incubation at 37 °C, mean ± SEM of at least three independent experiments in triplicate, read-out: IP1 production pEC50 (converted). On the procedure:
Figure 3 IP1production (A and B) and ERK1/2phosphorylation (C and D) kinetics and concentration dependence following hUT activation. IP1 production was evaluated using the IP-One terbium immunoassay kits while ERK1/2 phosphorylation was measured by western blot in CHO-K1 cells stably expressing hUT. […] Each curve represents the mean ± SEM of at least three independent experiments performed in triplicate.
This assay, performed with the IP-One terbium immunoassay kits from Cisbio, was used according to the manufacturer recommendation and as previously described ([43]). Briefly, CHO-hUT cells were grown in 10-cm dishes for 24 h. The cells were then starved without serum. The next day, cells were washed once with PBS and collected in PBS containing 20 mM EDTA. For the assay, 80,000 cells per well (96-well plate) were used. […] IP1-d2 and anti-IP1-cryptate were added for an additional 2 h at room temperature. Plates were read on a Flexstation 3 microplate reader.

Where [4] appears, read: percentage of the activation induced by hUII (10^−6 M), n = 3–5.

In general, Emax refers to the size of the effect at its maximum, as opposed to the concentration needed. For `CCCCCCCCCCCCCCCC(=O)N[C@@H](CCCNC(=N)N)C(=O)N1CCC[C@H]1C(=O)N[C@@H](CC(C)C)C(=O)N[C@@H](CC(=O)O)C(=O)N[C@H](C(=O)N[C@H](C(=O)N[C@@H](CCC(N)=O)C(=O)N[C@@H](CCCNC(=N)N)C(=O)N1CCC[C@H]1C(=O)N[C@@H](CCCCN)C(=O)NCC(=O)N[C@@H](Cc1ccc(O)cc1)C(N)=O)C(C)C)[C@@H](C)O` [hUT-Pep2] (Palmitoyl-RPLDTVQRPKGY-NH2), the “shift of hUII / URP concentration–response curve” value on rat thoracic aorta rings (rat aortic rings, pepducin 10^−6 M pretreatment) is “significant rightward shift in the concentration–response curve of hUII but not URP”. The results for the Emax at rat thoracic aorta rings, on hUT [1] (setting [4]) and at hUT [2] were 86 ± 3%, approximately 9% and 96 ± 2%, respectively. Besides, the EC50 is 49 nM at hUT [1], 0.0813 nM at hUT [2] and more than 1000 nM at hUT [3] (CHO-hUT). In addition, the “ERK1/2 phosphorylation in absence of receptor” value (shortened to “ERK1/2 phosphorylation”) in the assay on CHO-K1 cells is given as “neither hUII nor hUT-derived pepducins were able to induce ERK1/2 phosphorylation”. The “IP1 production efficacy at 10^−5 M” value at hUT [3] (CHO-hUT) was “around 35%”.
For the compound `CC(C)[C@H](NC(=O)[C@@H]1CSSC[C@H](NC(=O)[C@H](CC(=O)O)NC(=O)[C@@H]2CCCN2C(=O)[C@@H](NC(=O)[C@@H](N)CCC(=O)O)[C@@H](C)O)C(=O)N[C@@H](Cc2ccccc2)C(=O)N[C@@H](Cc2c[nH]c3ccccc23)C(=O)N[C@@H](CCCCN)C(=O)N[C@@H](Cc2ccc(O)cc2)C(=O)N1)C(=O)O` [hUII, urotensin II, reference compound], on rat thoracic aorta rings (rat aortic rings, hUII alone, mean ± SEM, n = 19), the “hUII-mediated contraction pEC50, control (no pretreatment)” value was 8.69 ± 0.08. Also, the values for the maximal effect (Emax) at 1 µM at hUT [1] (setting [4]) and on hUT [2] were 109 ± 5% and 93 ± 2%, respectively. In the assay on CHO-K1 cells, the “ERK1/2 phosphorylation” value is “neither hUII nor hUT-derived pepducins were able to induce ERK1/2 phosphorylation”. In addition, on hUT [3], the maximum response (Emax) turned out to be 97 ± 1%. Besides, the “time to plateau of IP1 production” value on hUT [3] (CHO-hUT, time course) is reported as 40 min.
As to `CCCCCCCCCCCCCCCC(=O)N[C@@H](Cc1c[nH]c2ccccc12)C(=O)N[C@@H](CC(C)C)C(=O)N[C@@H](CO)C(=O)N[C@@H](CCC(N)=O)C(=O)N[C@@H](CCCNC(=N)N)C(=O)N[C@@H](C)C(=O)N[C@@H](CO)C(=O)N[C@@H](Cc1ccccc1)C(=O)N[C@@H](CCCCN)C(=O)N[C@@H](CCCNC(=N)N)C(=O)N[C@@H](C)C(=O)N[C@@H](CCCNC(=N)N)C(=O)N[C@@H](CCCNC(=N)N)C(N)=O` [[Trp^1, Leu^2]hUT-Pep3] (Palmitoyl-WLSQRASFKRARR-NH2), the Emax on rat thoracic aorta rings is 35 ± 6%; on hUT [1] (setting [4]) it was 29 ± 4%; at hUT [2], 97 ± 2%. Moreover, the EC50 on hUT [1] was 4.57 nM; on hUT [2], 0.0407 nM; on hUT [3] (CHO-hUT), more than 1000 nM. Further, the “ERK1/2 phosphorylation” value in the assay with CHO-K1 cells was “neither hUII nor hUT-derived pepducins were able to induce ERK1/2 phosphorylation”. Besides, the “IP1 production efficacy at 10^−5 M” value on hUT [3] (CHO-hUT) is recorded as approximately 60%.

Source of the values: publication PMC8424217 (The Journal of Biological Chemistry, 2021).
